Laboratory results as given in patent US12479830B2, “Homopiperazinyl and homopiperidinyl quinazolin-4(3H)-one derivatives having multimodal activity against pain” (ESTEVE PHARMACEUTICALS, S.A., priority 2019, dated 2025).

Experiments:
[1] = biological target: Human α2δ-1 subunit of Cav2.2 calcium channel (Homo sapiens, UniProt P54289); assay: Human α2δ-1 subunit of Cav2.2 calcium channel assay ([3H]-gabapentin binding); conditions: binding to the α2δ-1 subunit of voltage-gated calcium channels, expressed as Ki class; + also covers inhibition between 1% and 50%
Procedure, shortened: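 Human α2δ-1 enriched membranes (2.5 μg) incubated 60 min at 27° C. with 15 nM [3H]-gabapentin in 10 mM Hepes-KOH pH 7.4; non-specific binding with 10 μM pregabalin. Filtration binding; % inhibition at 1 or 10 μM, or Ki from five concentrations.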

Human σ1 receptor = biological target: T1, Human σ1 receptor (Homo sapiens, UniProt Q99720); assay: Human σ1 receptor radioligand assay ([3H](+)-pentazocine binding); conditions: binding to the σ1 receptor, expressed as Ki class; + also covers inhibition between 1% and 50%
T1 construct: expressed in transfected cells; host or cells: HEK-293
Procedure, shortened: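 Membranes (7 μg) were incubated with 5 nM [3H](+)-pentazocine in 50 mM Tris-HCl pH 8 for 120 min at 37° C. Non-specific binding was defined with 10 μM haloperidol. Values are % inhibition at 1 or 10 μM or Ki from five concentrations, read by filtration and scintillation counting.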

Sequence of Human α2δ-1 subunit of Cav2.2 calcium channel (P54289 25-1103): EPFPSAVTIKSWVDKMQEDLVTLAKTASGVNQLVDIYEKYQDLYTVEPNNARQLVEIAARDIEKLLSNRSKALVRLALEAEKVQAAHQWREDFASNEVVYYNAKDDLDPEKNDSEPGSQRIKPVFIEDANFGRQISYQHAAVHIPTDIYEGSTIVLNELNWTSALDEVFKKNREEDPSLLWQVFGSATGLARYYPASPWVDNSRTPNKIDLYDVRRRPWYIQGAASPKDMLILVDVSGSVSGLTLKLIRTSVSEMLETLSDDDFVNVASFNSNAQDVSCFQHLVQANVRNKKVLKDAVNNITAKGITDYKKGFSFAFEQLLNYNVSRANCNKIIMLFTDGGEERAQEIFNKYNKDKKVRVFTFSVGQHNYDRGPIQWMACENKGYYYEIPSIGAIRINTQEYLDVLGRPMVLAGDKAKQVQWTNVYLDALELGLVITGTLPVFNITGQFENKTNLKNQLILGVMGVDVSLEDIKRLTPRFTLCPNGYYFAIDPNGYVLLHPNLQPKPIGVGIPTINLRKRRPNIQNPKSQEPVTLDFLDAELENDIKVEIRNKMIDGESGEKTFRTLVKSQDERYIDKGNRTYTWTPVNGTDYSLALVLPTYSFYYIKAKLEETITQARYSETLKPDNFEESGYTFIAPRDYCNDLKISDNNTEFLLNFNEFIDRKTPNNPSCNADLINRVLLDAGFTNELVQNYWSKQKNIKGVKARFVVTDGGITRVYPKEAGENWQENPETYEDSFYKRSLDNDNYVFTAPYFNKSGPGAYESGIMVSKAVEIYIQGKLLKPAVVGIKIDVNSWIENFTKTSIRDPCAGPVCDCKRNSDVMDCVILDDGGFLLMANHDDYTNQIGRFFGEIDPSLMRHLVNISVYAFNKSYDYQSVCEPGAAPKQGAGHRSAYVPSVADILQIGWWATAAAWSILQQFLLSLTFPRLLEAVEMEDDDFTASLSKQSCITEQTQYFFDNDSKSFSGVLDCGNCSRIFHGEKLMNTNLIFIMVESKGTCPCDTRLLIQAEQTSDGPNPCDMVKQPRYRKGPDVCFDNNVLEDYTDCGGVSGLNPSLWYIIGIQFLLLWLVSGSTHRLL
T1 sequence (Q99720 whole entry): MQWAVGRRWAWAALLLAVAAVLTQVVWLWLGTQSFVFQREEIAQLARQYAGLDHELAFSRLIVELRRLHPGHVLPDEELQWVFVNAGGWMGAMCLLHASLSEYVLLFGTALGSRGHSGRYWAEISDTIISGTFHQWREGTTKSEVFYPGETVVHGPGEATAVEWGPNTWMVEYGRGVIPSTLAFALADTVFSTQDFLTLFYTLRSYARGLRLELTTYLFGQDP

Ki [1] [nM]	Ki (Human σ1 receptor) [nM]	SMILES
500 to 5000	> 1000	CCC[C@@H](c1nc2ccc(Br)cc2c(=O)n1CCC)N1CCNC[C@H](C)C1 [Example 69, 6-bromo-2-((S)-1-((S)-6-methyl-1,4-diazepan-1-yl)butyl)-3-propylquinazolin-4(3H)-one]
< 500	> 1000	CCCC(c1nc2ccc(-c3ccccc3)cc2c(=O)n1CC)N1CCCN(C)CC1 (stereo not drawn) [Example 204, 3-Ethyl-2-(1-(4-methyl-1,4-diazepan-1-yl)butyl)-6-phenylquinazolin-4(3H)-one]
< 500	< 500	CCCC(c1nc2cc(Cl)c(Cl)cc2c(=O)n1CC)N1CCCN(C)CC1 (stereo not drawn) [Example 87, 6,7-dichloro-3-ethyl-2-(1-(4-methyl-1,4-diazepan-1-yl)butyl)quinazolin-4(3H)-one]
< 500	> 1000	CCC[C@H](c1nc2ccncc2c(=O)n1CC)N1CCNC[C@H](C)C1 [Example 164, 3-ethyl-2-((R)-1-((S)-6-methyl-1,4-diazepan-1-yl)butyl)pyrido[4,3-d]pyrimidin-4(3H)-one]
< 500	> 1000	CCCC(c1nc2cc(C#N)ccc2c(=O)n1CC)N1CCCN(C)CC1 (stereo not drawn) [Example 9, 3-ethyl-2-(1-(4-methyl-1,4-diazepan-1-yl)butyl)-4-oxo-3,4-dihydroquinazoline-7-carbonitrile]
< 500	> 1000	CCCC(c1nc2ncc(F)cc2c(=O)n1CC)N1CCCN(C)CC1 (stereo not drawn) [Example 182]
< 500	< 500	CCC[C@H](c1nc2ccc(C(F)(F)F)cc2c(=O)n1CC)N1CCN[C@@H](C)CC1 [Example 259, 3-ethyl-2-((R)-1-((S)-5-methyl-1,4-diazepan-1-yl)butyl)-6-(trifluoromethyl)quinazolin-4(3H)-one]
< 500	> 1000	CCC[C@H](c1nc2ccc(Br)cc2c(=O)n1CC)N1CCCN[C@@H](C)C1 [Example 142, 6-bromo-3-ethyl-2-((R)-1-((S)-3-methyl-1,4-diazepan-1-yl)butyl)quinazolin-4(3H)-one]
> 5000	< 500	CCC[C@H](c1nc2ccc(F)cc2c(=O)n1C(C)C)N1CCCN(CC)CC1 [Example 223, (R)-2-(1-(4-ethyl-1,4-diazepan-1-yl)butyl)-6-fluoro-3-isopropylquinazolin-4(3H)-one]
> 5000	500 to 1000	CCC[C@@H](c1nc2cc(F)c(Cl)cc2c(=O)n1CC)N1CCN(C)C[C@H](C)C1 [Example 137, 6-chloro-2-((S)-1-((S)-4,6-dimethyl-1,4-diazepan-1-yl)butyl)-3-ethyl-7-fluoroquinazolin-4(3H)-one]
< 500	> 1000	CCCC(c1nc2cc(Br)ccc2c(=O)n1CC)N1CCCNCC1 (stereo not drawn) [Example 4, 2-(1-(1,4-diazepan-1-yl)butyl)-7-bromo-3-ethylquinazolin-4(3H)-one]
> 5000	< 500	CCC[C@H](c1nc2ccc(Cl)cc2c(=O)n1C)N1CC[C@@H](C)N(C)CC1 [Example 257, 6-chloro-2-((R)-1-((R)-4,5-dimethyl-1,4-diazepan-1-yl)butyl)-3-mehtylquinazolin-4(3H)-one]
500 to 5000	> 1000	CCC[C@@H](c1nc2ccc(Br)cc2c(=O)n1CC)N1CCN(C)C[C@@H](CO)C1 [Example 124, 6-bromo-3-ethyl-2-((S)-1-((R)-6-(hydroxymethyl)-4-methyl-1,4-diazepan-1-yl)butyl)quinazolin-4(3H)-one]
500 to 5000	> 1000	CCC[C@@H](c1nc2ccncc2c(=O)n1CC)N1CCNC[C@@H](C)C1 [Example 167, 3-ethyl-2-((S)-1-((R)-6-methyl-1,4-diazepan-1-yl)butyl)pyrido[4,3-d]pyrimidin-4(3H)-one]
< 500	500 to 1000	CCC[C@H](c1nc2ccc(OC(F)(F)F)cc2c(=O)n1CC)N1CCCN(C)CC1 [Example 249, (R)-3-ethyl-2-(1-(4-methyl-1,4-diazepan-1-yl)butyl)-6-(trifluoromethoxy)quinazolin-4(3H)-one]
< 500	> 1000	CCC[C@H](c1nc2cc(F)c(OC)cc2c(=O)n1CC)N1CCCN(C)CC1 [Example 220, (R)-3-ethyl-7-fluoro-6-methoxy-2-(1-(4-methyl-1,4-diazepan-1-yl)butyl)quinazolin-4(3H)-one]
< 500	< 500	CCC[C@H](c1nc2cc(Cl)c(Cl)cc2c(=O)n1CC)N1CCN(C)C[C@@H](C)C1 [Example 132, 6,7-dichloro-2-((R)-1-((R)-4,6-dimethyl-1,4-diazepan-1-yl)butyl)-3-ethylquinazolin-4(3H)-one]
< 500	500 to 1000	CCCC(c1nc2ccc(Cl)cc2c(=O)n1CC)N1CCCN(C)CC1 (stereo not drawn) [Example 19, 6-chloro-3-ethyl-2-(1-(4-methyl-1,4-diazepan-1-yl)butyl)quinazolin-4(3H)-one]

Ki [1] [nM]	Ki (Human σ1 receptor) [nM]	SMILES
> 5000	500 to 1000	CCC[C@H](c1nc2ccc(F)cc2c(=O)n1C(C)C)N1CCCN(C)CC1 [Example 222, (R)-6-fluoro-3-isopropyl-2-(1-(4-methyl-1,4-diazepan-1-yl)butyl)quinazolin-4(3H)-one]
< 500	> 1000	CCCC(c1nc2ncccc2c(=O)n1CC)N1CCCN(C)CC1 (stereo not drawn) [Example 180, 3-ethyl-2-(1-(4-methyl-1,4-diazepan-1-yl)butyl)pyrido[2,3-d]pyrimidin-4(3H)-one]
> 5000	> 1000	CCC[C@@H](c1nc2ccncc2c(=O)n1CC)N1CCNC[C@H](C)C1 [Example 166, 3-ethyl-2-((S)-1-((S)-6-methyl-1,4-diazepan-1-yl)butyl)pyrido[4,3-d]pyrimidin-4(3H)-one]
< 500	500 to 1000	CCC[C@H](c1nc2cc(F)c(Br)cc2c(=O)n1CC)N1CCNC[C@@H](C)C1 [Example 97, 6-bromo-3-ethyl-7-fluoro-2-((R)-1-((R)-6-methyl-1,4-diazepan-1-yl)butyl)quinazolin-4(3H)-one]
> 5000	> 1000	CCC[C@H](c1nc2c(F)cc(F)cc2c(=O)n1CC)N1CCN[C@H](C)CC1 [Example 250, 3-ethyl-6,8-difluoro-2-((R)-1-((R)-5-methyl-1,4-diazepan-1-yl)butyl)quinazolin-4(3H)-one]
< 500	> 1000	CCC[C@H](c1nc2cc(F)c(F)cc2c(=O)n1CC)N1CCCN[C@@H](C)C1 [Example 260, 3-ethyl-6,7-difluoro-2-((R)-1-((S)-3-methyl-1,4-diazepan-1-yl)butyl)quinazolin-4(3H)-one]
< 500	> 1000	CCCC(c1nc2ccc(C#N)cc2c(=O)n1CC)N1CCCN(C)CC1 (stereo not drawn) [Example 10, 3-ethyl-2-(1-(4-methyl-1,4-diazepan-1-yl)butyl)-4-oxo-3,4-dihydroquinazoline-6-carbonitrile]
< 500	< 500	CCCC(c1nc2cc(F)c(Br)cc2c(=O)n1CCC)N1CCCN(CC)CC1 (stereo not drawn) [Example 61, 6-bromo-2-(1-(4-ethyl-1,4-diazepan-1-yl)butyl)-7-fluoro-3-propylquinazolin-4(3H)-one]
< 500	500 to 1000	CCCC(c1nc2ccc(F)c(F)c2c(=O)n1CC)N1CCCNCC1 (stereo not drawn) [Example 81, 2-(1-(1,4-diazepan-1-yl)butyl)-3-ethyl-5,6-difluoroquinazolin-4(3H)-one]
< 500	> 1000	CCCC(c1nc2ccc(F)cc2c(=O)n1CC)C1CCCNCC1 (stereo not drawn) [Example 266, 2-(1-(Azepan-4-yl)butyl)-3-ethyl-6-fluoroquinazolin-4(3H)-one]
> 5000	> 1000	CCC[C@@H](c1nc2ccc(Cl)cc2c(=O)n1CCC)N1CCCN(C)CC1 [Example 160, (S)-6-chloro-2-(1-(4-methyl-1,4-diazepan-1-yl)butyl)-3-propylquinazolin-4(3H)-one]
< 500	< 500	CCC[C@H](c1nc2ccc(F)cc2c(=O)n1CC)N1CCCN(CC)CC1 [Example 210, (R)-3-ethyl-2-(1-(4-ethyl-1,4-diazepan-1-yl)butyl)-6-fluoroquinazolin-4(3H)-one]
> 5000	500 to 1000	CCC[C@@H](c1nc2ccc(Cl)cc2c(=O)n1C)N1CCCN[C@H](C)C1 [Example 150, 6-chloro-3-methyl-2-((S)-1-((R)-3-methyl-1,4-diazepan-1-yl)butyl)quinazolin-4(3H)-one]
< 500	> 1000	CCC[C@H](c1nc2ccncc2c(=O)n1CC)N1CCN(C)C[C@H](C)C1 [Example 169, 2-((R)-1-((S)-4,6-dimethyl-1,4-diazepan-1-yl)butyl)-3-ethylpyrido[4,3-d]pyrimidin-4(3H)-one]
> 5000	< 500	CCCC(c1nc2ccc(Br)cc2c(=O)n1C)N1CCCN(CC)CC1 (stereo not drawn) [Example 85, 6-bromo-2-(1-(4-ethyl-1,4-diazepan-1-yl)butyl)-3-methylquinazolin-4(3H)-one]
> 5000	500 to 1000	CCC[C@@H](c1nc2cc(F)c(Br)cc2c(=O)n1CC)N1CCCN(C)CC1 [Example 156, (S)-6-bromo-3-ethyl-7-fluoro-2-(1-(4-methyl-1,4-diazepan-1-yl)butyl)quinazolin-4(3H)-one]
< 500	> 1000	CCCC(c1nc2ccncc2c(=O)n1CC)N1CCCN(C)CC1 (stereo not drawn) [Example 163, 3-Ethyl-2-(1-(4-methyl-1,4-diazepan-1-yl)butyl)pyrido[4,3-d]pyrimidin-4(3H)-one]
< 500	> 1000	CCC[C@H](c1nc2ccncc2c(=O)n1CC)N1CCCN(C)CC1 [Example 173, (R)-3-Ethyl-2-(1-(4-methyl-1,4-diazepan-1-yl)butyl)pyrido[4,3-d]pyrimidin-4(3H)-one]
